Reference: patent US20260007688A1, “SYNTHETIC ANALOGS OF CANNABINOL (CBN) FOR THE TREATMENT OF AGERELATED NEUROLOGICAL DISORDERS” (priority 2023, published 2026)
Like-named read-outs stand apart in the source and are kept apart here.

Tests used:
HT22 cells [1] = format: cell-based, mouse
Excerpt: A series of fragment chemicals with different variants of the substructures were assembled and screened in a cell-based phenotypic screening assays in the context of oxytosis/ferroptosis (FIG. 1). Specifically, for the left unit (LU), monoterpenoids with different functional groups and/or double-bond substitutions as well as ring arrangements were screened. For the central unit (CU), benzene rings with different hydroxyl group substitutions were screened. For the right unit (RU), different lengths, with or without branches, of the aliphatic hydrocarbon chains were examined.
CBN, CBD and THC were used as reference compounds.
(§1) Briefly, HT22 cells were seeded at 3,000 cells/well in 96-well tissue culture plates in DMEM plus 10% FBS and 1% antibiotics. After 24 hours of plating, the cells were pretreated with different concentrations of the test compounds or a vehicle control for 1 hour followed by coincubation with 5 mM glutamate to initiate the cell death cascade. After 16 hours of treatment, cell viability was measured by the 3-(4,5-dimethylthiazol-2-yl)-2,5-diphenyltetrazolium bromide (MTT) assay. Optical absorbance was measured at 570 nm on a SpectraMax M5 microplate reader. Samples were analyzed in eight to sixteen wells per independent experiment (n=8-16).
as §1, with “The assay procedure described in Fischer et al. was used. Briefly,” for “Briefly,”, “of” for “of the”, “50-100 nM RSL3 or 500 nM erastin” for “5 mM glutamate”, “induce” for “initiate”, “MTT” for “3-(4,5-dimethylthiazol-2-yl)-2,5-diphenyltetrazolium bromide (MTT)”

HT22 cells [2] = assay: Oxytosis assay, glutamate-induced cell death, MTT viability; format: cell-based; settings: Mus musculus, HT-22, 5 mM glutamate, 16 hours
Method: (§2) HT22 mouse hippocampal nerve cells were cultured in high-glucose Dulbecco's modified Eagle's medium (DMEM) (Invitrogen, Cat #11995065, Carlsbad, CA) supplemented with 10% fetal bovine serum (FBS) (Invitrogen, Carlsbad, CA) and 1% antibiotics including penicillin and streptomycin (Invitrogen Cat #10378016, Carlsbad, CA). Cell cultures were incubated at 37° C. in a fully humidified atmosphere containing 10% CO2.
The assay procedure described in Fischer et al., “Old age-associated phenotypic screening for Alzheimer's disease drug candidates identifies sterubin as a potent neuroprotective compound from Yerba santa” Redox Biol. 21 (2019) 101089 was used. Briefly, HT22 cells were seeded at 3,000 cells/well in 96-well tissue culture plates in DMEM plus 10% FBS and 1% antibiotics. After 24 hours of plating, the cells were pretreated with different concentrations of the test compounds or a vehicle control for 1 hour followed by coincubation with 5 mM glutamate to initiate the cell death cascade. After 16 hours of treatment, cell viability was measured by the 3-(4,5-dimethylthiazol-2-yl)-2,5-diphenyltetrazolium bromide (MTT) assay. Optical absorbance was measured at 570 nm on a SpectraMax M5 microplate reader. Samples were analyzed in eight to sixteen wells per independent experiment (n=8-16). Results are presented as the percentage of the controls with vehicle alone.

MC65 cells = assay: Intracellular amyloid toxicity assay; format: cell-based; settings: Homo sapiens, 72 h, APP-C99 induced, day 3, MTT, read-out: Aβ toxicity EC50
Excerpt: Accumulation of intracellular amyloid beta peptide (Aβ) is considered by many as being a primary toxic event in AD. The human nerve cell line MC65 conditionally expresses the C99 fragment of the amyloid precursor protein (APP) leading to the accumulation of intracellular AB. The MC65 cells are routinely grown in the presence of tetracycline and, following its removal, the expression of C99 is induced and the cells die within three days because of the accumulation of intracellular, toxic protein aggregates.
For the intracellular amyloid toxicity assay the procedure described in Huang et al., “Intracellular amyloid toxicity induces oxytosis/ferroptosis regulated cell death” Cell Death Dis. 11 (10) (2020) 828 was used. Briefly, MC65 cells were regularly grown in high glucose DMEM supplemented with 10% FCS and 2 μg/ml tetracycline. For the assay, cells were dissociated and plated at 1×10^5 cells per well in 24 well tissue culture plates. After overnight cultivation in growth medium, the cells were washed three times with phosphate buffered saline containing calcium and magnesium and then switched to Opti-minimal essential media (Opti-MEM, Invitrogen) in the presence (no induction) or absence (APP-C99 induced) of 2 μg/ml tetracycline in the presence or absence different concentrations of the indicated compounds. At day 3, the control cells in the absence of tetracycline were dead, and cell viability was determined by the MTT assay. Optical absorbance was measured at 570 nm on a SpectraMax M5 microplate reader. Samples were analyzed in three wells per independent experiment (n=3). Results are presented as EC50.

Drosophila melanogaster = assay: Drosophila mild traumatic brain injury (mTBI) model; format: in vivo; settings: 3.0 μM in food, 3 weeks after mTBI (10×); vehicle 70.2%
HT22 cells [3] = assay: Ferroptosis assay, RSL3-induced cell death, MTT viability; format: cell-based; settings: Mus musculus, HT-22, 50 nM RSL3, 16 hours
Method: as §2
as §1, with “The assay procedure described in Fischer et al. was used. Briefly,” for “Briefly,”, “of” for “of the”, “50-100 nM RSL3 or 500 nM erastin” for “5 mM glutamate”, “induce” for “initiate”, “MTT” for “3-(4,5-dimethylthiazol-2-yl)-2,5-diphenyltetrazolium bromide (MTT)”, “(n=8-16). Results are presented as the percentage of the controls with vehicle alone.” for “(n=8-16).”

HT22 cells [4] = assay: Ferroptosis assay, erastin-induced cell death, MTT viability; format: cell-based; settings: Mus musculus, HT-22, 500 nM erastin, 16 hours
Method: as §2
as §1, with “The assay procedure described in Fischer et al. was used. Briefly,” for “Briefly,”, “of” for “of the”, “50-100 nM RSL3 or 500 nM erastin” for “5 mM glutamate”, “induce” for “initiate”, “MTT” for “3-(4,5-dimethylthiazol-2-yl)-2,5-diphenyltetrazolium bromide (MTT)”, “(n=8-16). Results are presented as the percentage of the controls with vehicle alone.” for “(n=8-16).”

HT22 cells [5] = assay: Seahorse XF mitochondrial stress test (OCR); format: cell-based, mouse; settings: 16 hours, compared with the control cells
HT22 cells [6] = assay: Mitochondrial reactive oxygen species measurement (MitoSOX Red); format: cell-based, mouse; settings: 5 μM compound + 50 nM RSL3
Method: The assay procedure described in Liang et al. was used. Briefly, HT22 cells were seeded onto 96-well black walled plates at a density of 3,000 cells/well in DMEM supplemented with 10% FBS and 1% antibiotics. After the desired treatments, the mitochondrial superoxide ROS were detected with MitoSOX Red reagent (Ex/Em=510/580 nm). Experiments were performed according to the manufacturer's instructions. Fluorescence was measured on a SpectraMax M5 microplate reader. Data were normalized for total protein/well. Each condition was analyzed in eight wells per independent experiment (n=8). Results are presented as the percentage of the controls with vehicle alone. Results were verified by live-cell imaging under a fluorescence microscope. FIG. 14 provides the results.

SMILES: Oc1ccccc1 [phenol]
- neuroprotective activity against oxytosis/ferroptosis (HT22 cells [1]): limited neuroprotective activity

SMILES: Oc1ccc(O)c(O)c1 [hydroxyquinol]
- neuroprotective activity against oxytosis/ferroptosis (HT22 cells [1]; 1-50 μM, glutamate and RSL3): limited neuroprotective activity

SMILES: CCCCCc1cc(O)c2c(c1)OC(C)C=C2 (centres unmarked) [CP4, 2-methyl-7-pentyl-2H-chromen-5-ol]
- EC50 (HT22 cells [2]): 6630 nM
- EC50 (MC65 cells): 1600 nM
- 3-week mortality index (MI), percentage of dead flies (Drosophila melanogaster): 61.9%
- EC50 (HT22 cells [3]): 830 nM
- EC50 (HT22 cells [4]): 8080 nM

SMILES: Oc1cccc(O)c1 [resorcinol]
- neuroprotective activity against oxytosis/ferroptosis (HT22 cells [1]; 1-50 μM, glutamate and RSL3): limited neuroprotective activity

SMILES: CCCCCCC(C)(C)c1cc(O)c2c(c1)OC(C)(C)C=C2 [CP1, 2,2-dimethyl-7-(2-methyloctan-2-yl)-2H-chromen-5-ol]
- maximal and spare mitochondrial respiration (OCR) (HT22 cells [5]): strongest effect on the suppression
- RSL3-induced mtROS production (HT22 cells [6]): strongest anti-mtROS effect
- EC50 (HT22 cells [2]): 1890 nM
- EC50 (MC65 cells): 31 nM
- 3-week mortality index (MI), percentage of dead flies (Drosophila melanogaster): 49.5%
- EC50 (HT22 cells [3]): 680 nM
- EC50 (HT22 cells [4]): 2780 nM

SMILES: Oc1ccccc1O [catechol]
- neuroprotective activity against oxytosis/ferroptosis (HT22 cells [1]; 10-50 μM, glutamate and RSL3): weak neuroprotective activities

SMILES: CC(C)(C)c1cc(O)ccc1O [2-tert-butylbenzene-1,4-diol]
- neuroprotective activity against oxytosis/ferroptosis (HT22 cells [1]; 10-50 μM, glutamate and RSL3): good to excellent neuroprotective activity

SMILES: Oc1cc(O)cc(O)c1 [phloroglucinol]
- neuroprotective activity against oxytosis/ferroptosis (HT22 cells [1]; 1-50 μM, glutamate and RSL3): limited neuroprotective activity

SMILES: CCCCCCC(C)(C)c1cc(O)cc(O)c1 [5-(1,1-dimethylheptyl) resorcinol]
- neuroprotection (HT22 cells [1]; 1 μM): > 50%

SMILES: CCCCCc1cc(O)cc(O)c1 [olivetol, 5-pentyl-1,3-benzenediol]
- neuroprotective activity against oxytosis/ferroptosis (HT22 cells [1]; 10-50 μM, glutamate and RSL3): good to excellent neuroprotective activity

SMILES: Oc1ccc(O)cc1 [hydroquinone]
- neuroprotective activity against oxytosis/ferroptosis (HT22 cells [1]): weak neuroprotective activities

SMILES: CCCCCCCCCCCCCCCc1cc(O)cc(O)c1 [5-pentadecylresorcinol]
- neuroprotective activity against oxytosis/ferroptosis (HT22 cells [1]; 1-50 μM, glutamate and RSL3): no further improvement in neuroprotective activity

SMILES: Oc1cccc(O)c1O [pyrogallol]
- neuroprotective activity against oxytosis/ferroptosis (HT22 cells [1]; 1-50 μM, glutamate and RSL3): limited neuroprotective activity

SMILES: CCCCc1ccc(O)c(O)c1 [4-butylbenzene-1,2-diol]
- neuroprotective activity against oxytosis/ferroptosis (HT22 cells [1]; 10-50 μM, glutamate and RSL3): good to excellent neuroprotective activity

SMILES: CCCCCCC(C)(C)c1cc(O)c2c(c1)OC(C)C=C2 (centres unmarked) [CP2, 2-methyl-7-(2-methyloctan-2-yl)-2H-chromen-5-ol]
- EC50 (HT22 cells [2]): 2890 nM
- EC50 (MC65 cells): 97 nM
- 3-week mortality index (MI), percentage of dead flies (Drosophila melanogaster): 66.7%
- EC50 (HT22 cells [3]): 920 nM
- EC50 (HT22 cells [4]): 3360 nM

SMILES: CCCCCCc1ccc(O)cc1O [4-hexylresorcinol, 4-hexylbenzene-1,3-diol]
- neuroprotective activity against oxytosis/ferroptosis (HT22 cells [1]; 10-50 μM, glutamate and RSL3): good to excellent neuroprotective activity

SMILES: CCCCCc1cc(O)c2c(c1)OC(C)(C)C=C2 [CP3, 2,2-dimethyl-7-pentyl-2H-chromen-5-ol]
- EC50 (HT22 cells [2]): 2600 nM
- EC50 (MC65 cells): 144 nM
- 3-week mortality index (MI), percentage of dead flies (Drosophila melanogaster): 67.3%
- EC50 (HT22 cells [3]): 860 nM
- EC50 (HT22 cells [4]): 3780 nM
